# Reference: ChEMBL document CHEMBL4321846, “Discovery of a Potent and Selective Oral Inhibitor of ERK1/2 (AZD0364) That Is Efficacious in Both Monotherapy and Combination Therapy in Models of Nonsmall Cell Lung Cancer (NSCLC)” (J Med Chem, 2019)
# Columns and labels:
# [1] = molecular target: T1, Mitogen-activated protein kinase 1 (Homo sapiens, UniProt P28482); assay: Inhibition of MEK U911-activated ERK2 (unknown origin) using ERKtide as substrate preincubated for 20 mins followed by substrate addition in presence of ATP at Km concentration after 20 mins by rapidfire mass spectrometry analysis
# [2] = molecular target: T1, Mitogen-activated protein kinase 1; assay: Inhibition of MEK U911-activated ERK2 (unknown origin) using ERKtide as substrate preincubated for 20 mins followed by substrate addition in presence of 1 mM ATP after 10 mins by rapidfire mass spectrometry analysis
# [3] = molecular target: T2, Mitogen-activated protein kinase; ERK1/ERK2 (Homo sapiens, UniProt P27361+P28482); assay: Inhibition of ERK1/2 in human A375 cells assessed as inhibition of ERK phosphorylation after 2 hrs; format: cell-based
# [4] = molecular target: T2, Mitogen-activated protein kinase; ERK1/ERK2; assay: Inhibition of ERK1/2 in human A375 cells assessed as inhibition of RSK phosphorylation after 2 hrs; format: cell-based
# [5] = molecular target: Voltage-gated inwardly rectifying potassium channel KCNH2 (Homo sapiens, UniProt Q12809)
# Chain of Voltage-gated inwardly rectifying potassium channel KCNH2 (Q12809 whole entry): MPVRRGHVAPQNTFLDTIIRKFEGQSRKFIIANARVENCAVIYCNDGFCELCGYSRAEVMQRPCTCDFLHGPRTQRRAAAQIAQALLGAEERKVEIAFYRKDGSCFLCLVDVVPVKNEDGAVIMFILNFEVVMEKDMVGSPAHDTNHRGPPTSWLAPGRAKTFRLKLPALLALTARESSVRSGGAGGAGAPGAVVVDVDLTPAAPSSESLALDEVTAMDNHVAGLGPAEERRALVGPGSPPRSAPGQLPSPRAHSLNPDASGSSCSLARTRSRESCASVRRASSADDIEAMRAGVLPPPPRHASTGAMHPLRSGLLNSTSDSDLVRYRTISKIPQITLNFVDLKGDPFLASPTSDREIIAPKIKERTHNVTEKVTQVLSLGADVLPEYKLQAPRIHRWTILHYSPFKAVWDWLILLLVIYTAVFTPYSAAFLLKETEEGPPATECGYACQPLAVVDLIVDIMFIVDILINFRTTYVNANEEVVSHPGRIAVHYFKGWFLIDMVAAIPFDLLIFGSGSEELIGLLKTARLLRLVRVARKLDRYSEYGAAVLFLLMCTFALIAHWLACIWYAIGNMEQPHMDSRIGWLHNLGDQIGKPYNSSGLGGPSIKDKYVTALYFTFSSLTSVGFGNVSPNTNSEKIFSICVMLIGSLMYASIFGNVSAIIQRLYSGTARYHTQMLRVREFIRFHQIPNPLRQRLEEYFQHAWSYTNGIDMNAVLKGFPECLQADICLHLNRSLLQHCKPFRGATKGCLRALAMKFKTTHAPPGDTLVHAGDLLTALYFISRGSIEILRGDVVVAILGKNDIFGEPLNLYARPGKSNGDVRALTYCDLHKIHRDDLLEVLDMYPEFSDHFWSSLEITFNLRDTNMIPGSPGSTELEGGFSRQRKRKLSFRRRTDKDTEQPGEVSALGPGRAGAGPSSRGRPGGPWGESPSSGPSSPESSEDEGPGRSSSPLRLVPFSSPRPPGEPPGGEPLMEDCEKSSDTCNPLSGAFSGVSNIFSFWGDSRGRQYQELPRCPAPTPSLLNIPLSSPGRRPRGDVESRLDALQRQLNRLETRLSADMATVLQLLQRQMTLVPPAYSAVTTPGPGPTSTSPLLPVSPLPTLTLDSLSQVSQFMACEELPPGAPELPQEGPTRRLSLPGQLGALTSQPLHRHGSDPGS
# T1 sequence (P28482 whole entry): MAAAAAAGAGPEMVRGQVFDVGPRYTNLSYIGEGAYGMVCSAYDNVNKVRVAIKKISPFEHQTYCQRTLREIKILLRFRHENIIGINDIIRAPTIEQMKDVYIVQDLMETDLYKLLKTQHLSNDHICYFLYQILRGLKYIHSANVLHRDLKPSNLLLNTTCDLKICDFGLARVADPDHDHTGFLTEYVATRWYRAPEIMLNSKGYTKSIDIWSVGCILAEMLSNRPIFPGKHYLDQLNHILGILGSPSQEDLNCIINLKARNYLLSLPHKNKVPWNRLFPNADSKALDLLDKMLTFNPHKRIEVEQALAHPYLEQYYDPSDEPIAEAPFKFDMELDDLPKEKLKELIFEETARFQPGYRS
SMILES,IC50 [1],IC50 [2],IC50 [3],IC50 [4],IC50 [5]
Cc1cnc(Nc2ccnn2C)nc1-c1cn2c(n1)C(=O)N(Cc1ccc(F)c(F)c1)[C@@H](C)C2,< 0.3 nM,0.32 nM,3.4 nM,38 nM,23000 nM
Cc1cnc(Nc2ccnn2C)nc1-c1cn2c(n1)C(=O)N(Cc1cccc(Cl)c1)CC2,< 0.3 nM,0.34 nM,4.7 nM,12 nM,–
Cc1cnc(Nc2ccnn2C)nc1-c1cn2c(n1)C(=O)N(Cc1ccc(F)c(F)c1)CC2,0.83 nM,2.6 nM,9.1 nM,31 nM,23000 nM
Cc1cnc(Nc2ccnn2C)nc1-c1cc2n(c1)CCN(Cc1cccc(Cl)c1)C2=O,< 0.3 nM,0.13 nM,> 14000 nM,10 nM,–
COC[C@H]1Cn2cc(-c3nc(Nc4ccnn4C)ncc3C)cc2C(=O)N1Cc1cccc(C)n1,< 0.3 nM,0.6 nM,30 nM,60 nM,–
